Assay results published in PMC4935840, “Molecular basis of the remarkable species selectivity of an insecticidal sodium channel toxin from the African spider Augacephalus ezendami” (Scientific Reports, 2016).
Entries after “also recorded” stand apart in the source; their conditions may differ.

Assays:
[1] = system: triatomine bug Rhodnius prolixus; assay: Toxicity by injection into triatomine bugs; assay type: in vivo; settings: for activity against R. prolixus (in words): injection
Procedure: (§1) Figure 3 Insecticidal effects of Ae1a. (A) rAe1a was injected into blowflies (Lucilia cuprina) and paralytic effects were measured 0.5 and 1 h after injection. (B) rAe1a was injected into fruit flies (Drosophila melanogaster) and paralytic and lethal effects were measured at 3 h and 24 h post injection. (C) rAe1a and Hv1a were injected into the triatomine bug Rhodnius prolixus and lethality was measured 24 h after injection. PD50 and LD50 values were calculated as described previously.
Toxicity against R. prolixus was measured using the method described by Luna et al.[49] with some modifications. Microinjection needles, made by pulling borosilicate glass capillaries with a needle puller (Narishige, PC-10, Japan), were fitted onto a Nanoject II auto injector (Drummond Scientific, Broomall, PA, USA). Ae1a, Hv1a, or PBS (n = 7–10 per dose, 138 nl volume) were injected into the thorax of second instar R. prolixus nymphs (average mass 1.4 mg) via articulation of prothoracic coxa. Synthetic Hv1a was kindly supplied by Vestaron Corporation (Kalamazoo, MI, USA). Three separate sets of experiments were performed for each compound. After injection, bugs were transferred to plastic cages and stored at 26 °C with 50% relative humidity. All bugs were checked at 24 h post-injection for signs of paralysis or lethality.

honeybees = settings: cited from earlier work
Text: (§2) An ideal bioinsecticide would be specific for the targeted insect pest, without harming beneficial insects. Although most spiders are generalist predators that hunt many types of insect prey, some spider-venom peptides have been isolated that are specific to certain insect orders or even to certain species within an insect order. […] Another ex ...

[2] = system: wide range of insect pest species; settings: cited from earlier work
Text: as §2

[3] = system: insect voltage-gated calcium channels; settings: cited from earlier work
[4] = system: American cockroaches (Periplaneta americana); settings: at much higher doses; cited from earlier work
Text: as §2

[5] = system: German cockroaches (Blattella germanica); settings: cited from earlier work
Text: as §2

[6] = system: BgNaV1 over PaNaV1 channels; settings: cited from earlier work
Text: The selectivity of Ae1a for BgNaV1 over PaNaV1 channels is reminiscent of the selectivity reported for the insecticidal spider-venom peptide μ-DGTX-Dc1a (Dc1a) isolated from the American desert spider Diguetia canities. In order to explore the molecular basis of this species selectivity we examined the ability of Ae1a to inhibit the activity of a BgNaV1 channel containing two mutations that were previously reported to determine sensitivity to Dc1a[18].

[7] = system: sheep blowflies (Lucilia cuprina); assay: Insecticidal activity by injection into sheep blowflies (PD50); assay type: in vivo
Procedure: as §1
rAe1a was dissolved in insect saline[45] and injected into the ventro-lateral thoracic region of adult sheep blowflies (L. cuprina; mass 26.8–29.7 mg) as described previously. A maximum of 2 μl was injected per fly using a 1.0 ml Terumo Insulin syringe with 29-gauge needle fitted to an Arnold hand micro-applicator (Burkard Manufacturing Co. Ltd., Rickmansworth, England). After injection, flies were individually housed in 2-ml tubes and paralytic effects determined after 0.5, 1 and 24 h. A total of three assays were performed, and for each assay nine doses of rAe1a (n = 10 flies per dose) and the appropriate control (insect saline; n = 20 flies each) were used. PD50 values were calculated as described.

[8] = system: fruit flies (Drosophila melanogaster); assay: Insecticidal activity by injection into fruit flies (PD50, LD50); assay type: in vivo; settings: D. melanogaster
Procedure: as §1
The effect on rAe1a on fruit flies was determined using a previously described method. rAe1a was dissolved in 100 mM ammonium acetate buffer (pH 6.1) and injected into the lateral thoracic region of adult female D. melanogaster using a glass capillary connected with silicone tubing to a 10 ml plastic syringe. The injection volume per fruit fly was calibrated to be 50 nl for each glass capillary. After injection, fruit flies were housed in 68-ml plastic tubes (containing a cotton piece soaked in 0.5% sucrose solution) in groups of 10 (all receiving the same treatment) and monitored for signs of paralysis or lethality at 3 and 24 h post-injection.

[9] = system: cotton bollworms (H. armigera larvae); assay: Injection into cotton bollworm larvae; assay type: in vivo, Helicoverpa armigera
Procedure: We examined the effect of rAe1a on cotton bollworms (i.e., larvae of H. armigera) supplied by AgBiTech (Glenvale, QLD, Australia). […] Larvae were kept on artificial diet (AgBiTech) in standard 6-well plates and their mass was measured 24, 48 and 72 h after the injection.

[10] = system: diamondback moth Plutella xylostella; assay: Injection into larvae of the diamondback moth (data not shown); assay type: in vivo; settings: injected into larvae of Plutella xylostella
BgNaV1 = assay: Two-electrode voltage-clamp of BgNaV1 in Xenopus oocytes; assay type: cell-based, Blattella germanica
Procedure: (§3) Figure 4 Effect of rAe1a on BgNav1 and hNaV1.5. Left panels: Representative traces showing the effect of rAe1a (200 nM) on sodium currents mediated by (A) BgNaV1, (C) mutant BgNaV1 (H805Y/D812E), and (E) hNaV1.5 heterologously expressed in Xenopus oocytes. Currents were evoked by a depolarization to −15 mV, with black and red traces corresponding to the current before and after toxin application, respectively. Right panels: Effect of 200 nM rAe1a on normalized conductance-voltage (G–V) relationships (G/Gmax) and steady-state inactivation (SSI) relationships (I/Imax) for (B) BgNaV1, (D) mutant BgNaV1, and (F) hNaV1.5. […]
(§4) cRNA encoding BgNaV1 from Blattella germanica[50] and hNaV1.5 (Origene, Rockville, MD, USA) was synthesized using T7 polymerase (mMessage mMachine kit, Life Technologies, USA) after linearizing the fully-sequenced DNA. […] Oocytes were incubated at 17 °C in 96 mM NaCl, 2 mM KCl, 5 mM HEPES, 1 mM MgCl2 and 1.8 mM CaCl2, 50 μg/ml gentamycin, pH 7.6 with NaOH, and currents were measured 1–2 days after cRNA injection using the two-electrode voltage-clamp recording technique (OC-725C, Warner Instruments, Hamden, CT, USA) with a 150-μl recording chamber. […] After addition of rAe1a to the recording chamber, equilibration between toxin and channel was monitored using weak depolarizations elicited at 5-s intervals. […]

[11] = system: mutant BgNaV1 (H805Y/D812E); assay: Two-electrode voltage-clamp of mutant BgNaV1 (H805Y/D812E) in Xenopus oocytes; assay type: cell-based, Blattella germanica; settings: BgNaV1 H805Y/D812E versus wild-type BgNaV1
Procedure: as §3, §4

hNaV1.5 = assay: Two-electrode voltage-clamp of hNaV1.5 in Xenopus oocytes; assay type: cell-based; settings: hNaV1.5 + human β1 in Xenopus oocytes, 200 nM, n = 3–5
Procedure: as §3, §4

[12] = system: NaV channel currents in dorsal unpaired median (DUM) neurons (PaNaV1); assay: Whole-cell patch-clamp of NaV channel currents in DUM neurons; assay type: cell-based, Periplaneta americana; settings: P. americana DUM neurons
Procedure: Figure 5 Effect of rAe1a on NaV channel currents in P. americana DUM neurons. (A) Representative traces showing the effect of 1 μM rAe1a on INa mediated by PaNaV1 in P. americana DUM neurons. Currents were evoked by depolarizations to −10 mV, from a holding potential of −90 mV (panel B), with black and red traces corresponding to the current before, and 5 min after, toxin application, respectively. (C) Time course of rAe1a actions on PaNaV1. Peak INa were recorded at a rate of 0.1 Hz before (black circles), and for 5 min during, application of 1 μM rAe1a (red circles) and normalized against maximal peak INa (−1/Imax; n = 3). (D) GNa-V relationships in P. americana DUM neurons. A voltage protocol with depolarisation steps from −90 mV to +40 mV in 10 mV increments (lower panel B) was used to generate families of INa. The normalized conductance-voltage (GNa-V) relationship (G/Gmax) is shown before (black circles) and after (red circles) a 5 min perfusion with 1 μM rAe1a (n = 4). […]
Ionic currents were recorded from DUM neurons in voltage-clamp mode using the whole-cell patch-clamp technique employing version 10.2 of the pCLAMP data acquisition system (Molecular Devices, Sunnyvale, CA, USA). […] Liquid junction potentials were calculated using JPCALC, and all data were compensated for these values. […] Peak current amplitude was analysed offline using AxoGraph X v1.5.3 (Molecular Devices). […]

[13] = system: fruit fly Drosophila melanogaster; assay: Screen of spider venoms / native peptide by injection into fruit flies; assay type: in vivo; settings: injected into D. melanogaster
Procedure: We used the fruit fly Drosophila melanogaster to rapidly screen spider venoms for insecticidal activity. […] Microinjection of venoms or toxins into D. melanogaster has the advantage that it requires only small volumes (50 nl per fly), which enables the study of scarce venoms from small venomous animals. Given the worldwide availability of Drosophila and the general sensitivity of flies towards spider toxins, this assay provides a convenient method for determining the insecticidal potency of venom compounds. However, as discussed below, it should not be used in isolation but rather as part of a taxonomically diverse screening protocol that aims to uncover potentially complex phyletic specificities.

| Substance | LD50 ([1]; R. prolixus second instar nymphs, injection into thorax, 24 h after injection, n = 7–10 per dose, three experiments) [pmol/g] | activity against R. prolixus (in words) [1] | activity against honeybees (in words) (honeybees) | lethality (in words) [2] | calcium channel inhibition (in words) [3] | adverse effects (in words) [4] | lethality (in words) [5] | selectivity for BgNaV1 over PaNaV1 (in words) [6] | paralysis (in words) ([7]; L. cuprina) | PD50 (summary value) ([7]; sheep blowflies, approximate value in discussion) | paralysis / lethality (in words) [8] | adverse effects / resistance (in words) [9] | lethality (in words) [10] | inhibition of BgNaV1 currents (in words) (BgNaV1) | sensitivity of mutant channel to toxin (in words) [11] | effect on hNaV1.5 currents and gating (in words) (hNaV1.5) | effect on NaV channel currents in DUM neurons (in words) [12] | lethality / toxicity (in words) [13] |
| --- | --- | --- | --- | --- | --- | --- | --- | --- | --- | --- | --- | --- | --- | --- | --- | --- | --- | --- |
| ω-hexatoxin-Hv1a | 147 ± 37 | highly susceptible | inactive | lethal | selective inhibitor |  |  |  |  |  |  |  |  |  |  |  |  |  |
| μ-DGTX-Dc1a |  |  |  |  |  | does not induce adverse effects | lethal | selectivity |  |  |  |  |  |  |  |  |  |  |
| μ-theraphotoxin-Ae1a |  | inactive |  |  |  |  |  |  | rapid but reversible paralysis; also recorded: reverses within 24 h | ~ 950 pmol/g | lethal; also recorded: irreversible paralysis leading to death; also recorded: highly sensitive | no adverse effects; also recorded: resistant | lethal | potently inhibits | much less sensitive | completely inactive | failed to significantly affect sodium currents; also recorded: no significant affect | lethal |
